Experimental data: patent US9133157B2, “HIV protease inhibitors” (Merck Canada Inc., priority 2011, dated 2015)

Molecular target: WT HIV-1 protease (Human immunodeficiency virus type 1 group M subtype B (isolate HXB2) (HIV-1), UniProt P04585)
Test: Assay for inhibition of microbial expressed HIV protease (Procedure A, peptide substrate, HPLC fluorescence detection)
Assay type: biochemical
Settings: WT HIV-1 protease 10 pM, substrate 400 micromolar, pH 5.5, 30 min preincubation, 1 hour at 30° C.; read-out: Enzyme inhibition IC50
How it was run: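 E. coli-expressed enzyme preincubated 30 min at room temperature with compound in 50 mM sodium acetate pH 5.5, 100 mM NaCl, 0.1% BSA. Reaction ran 1 h at 30° C with 400 micromolar Val-Ser-Gln-Asn-(betanaphthyl)Ala-Pro-Ile-Val substrate and 10 picomolar protease. After phosphoric acid quench, product was measured by C18 HPLC with fluorescence (ex 270/em 330 nm).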

Molecule	IC50 [nM]
COC(=O)N[C@H](C(=O)N[C@H](c1ccc([C@@H](CO)N(CCC(C)(C)C)S(=O)(=O)c2ccc(N)c(Cl)c2)s1)C(F)(F)F)C(c1ccccc1)c1ccccc1 [Example 116, N-[(1S)-1-(5-{(1R)-1-[[(4-amino-3-chlorophenyl)sulfonyl](3,3-dimethylbutyl)amino]-2-hydroxyethyl}-2-thienyl)-2,2,2-trifluoroethyl]-Nα-(methoxycarbonyl)-β-phenyl-L-phenylalaninamide]	3.54
COC(=O)N[C@H](C(=O)N[C@H](c1ccc([C@@H](CO)N(CCC(C)(C)C)S(=O)(=O)c2ccc(N)cc2Cl)s1)C(F)(F)F)C(c1ccccc1)c1ccccc1 [Example 117, N-[(1S)-1-(5-{(1R)-1-[[(4-amino-2-chlorophenyl)sulfonyl](3,3-dimethylbutyl)amino]-2-hydroxyethyl}-2-thienyl)-2,2,2-trifluoroethyl]-Nα-(methoxycarbonyl)-β-phenyl-L-phenylalaninamide]	0.47
COC(=O)N[C@H](C(=O)N[C@H](c1ccc([C@@H](CO)N(CCC(C)(C)C)S(=O)(=O)c2ccc3ncnn3c2)s1)C(F)(F)F)C(c1ccccc1)c1ccccc1 [Example 118, N-[(1S)-1-(5-{(1R)-1-[(3,3-dimethylbutyl)([1,2,4]triazolo[1,5-a]pyridin-6-ylsulfonyl)amino]-2-hydroxyethyl}thiophen-2-yl)-2,2,2-trifluoroethyl]-Nalpha-(methoxycarbonyl)-beta-phenyl-L-phenylalaninamide]	2.43
COC(=O)N[C@H](C(=O)N[C@H](c1ccc([C@@H](CO)N(CCC(C)(C)C)S(=O)(=O)c2cn3cc(Cl)nc3cn2)s1)C(F)(F)F)C(c1ccccc1)c1ccccc1 [Example 119, N-[(1S)-1-{5-[(1R)-1-{[(2-chloroimidazo[1,2-a]pyrazin-6-yl)sulfonyl](3,3-dimethylbutyl)amino}-2-hydroxyethyl]thiophen-2-yl}-2,2,2-trifluoroethyl]-Nα-(methoxycarbonyl)-β-phenyl-L-phenylalaninamide]	13.9
COC(=O)N[C@H](C(=O)N[C@H](c1ccc([C@@H](CO)N(CCC(C)(C)C)S(=O)(=O)c2ccn3ncnc3c2)s1)C(F)(F)F)C(c1ccccc1)c1ccccc1 [Example 120, N-[(1S)-1-(5-{(1R)-1-[(3,3-dimethylbutyl)([1,2,4]triazolo[1,5-a]pyridin-7-ylsulfonyl)amino]-2-hydroxyethyl}thiophen-2-yl)-2,2,2-trifluoroethyl]-Nalpha-(methoxycarbonyl)-beta-phenyl-L-phenylalaninamide]	3
COC(=O)N[C@H](C(=O)N[C@H](c1ccc([C@@H](CO)N(CCC(C)(C)C)S(=O)(=O)c2cn3ccnc3cn2)s1)C(F)(F)F)C(c1ccccc1)c1ccccc1 [Example 122, N-[(1S)-1-(5-{(1R)-1-[(3,3-dimethylbutyl)(imidazo[1,2-a]pyrazin-6-ylsulfonyl)amino]-2-hydroxyethyl}thiophen-2-yl)-2,2,2-trifluoroethyl]-Nα-(methoxycarbonyl)-β-phenyl-L-phenylalaninamide]	5.78
COC(=O)N[C@H](C(=O)NCc1ccc([C@@H](CO)N(CC(C)C)S(=O)(=O)c2ccc3ncsc3c2)s1)C(c1ccccc1)c1ccccc1 [Example 123, N-[(5-{(1R)-1-[(1,3-benzothiazol-6-ylsulfonyl)(2-methylpropyl)amino]-2-hydroxyethyl}thiophen-2-yl)methyl]-Nα-(methoxycarbonyl).-β-phenyl-L-phenylalaninamide]	6.3
CC(C)CN(C(CO)c1ccc(CNC(=O)C(NC(=O)c2ccccc2)C(c2ccccc2)c2ccncc2F)s1)S(=O)(=O)c1ccc2ncsc2c1 (stereo not drawn) [Example 124, N-[1-[[5-[1-(1,3-benzothiazol-6-ylsulfonyl(isobutyl)amino)-2-hydroxy-ethyl]-2-thienyl]methylcarbamoyl]-2-(3-fluoro-4-pyridyl)-2-phenyl-ethyl]benzamide]	568
CC(C)CN(C(CO)c1ccc(CNC(=O)C(NC(=O)c2ccccc2)C(c2ccccc2)c2ccnc3ccccc23)s1)S(=O)(=O)c1ccc2ncsc2c1 (stereo not drawn) [Example 125, N-[1-[[5-[1-(1,3-benzothiazol-6-ylsulfonyl(isobutyl)amino)-2-hydroxy-ethyl]-2-thienyl]methylcarbamoyl]-2-phenyl-2-(4-quinolyl)ethyl]benzamide]	409
CC(C)CN(C(CO)c1ccc(CNC(=O)C(NC(=O)c2ccccc2)C(c2ccccc2)c2c[nH]c3ncccc23)s1)S(=O)(=O)c1ccc2ncsc2c1 (stereo not drawn) [Example 126, N-[1[[5-[1-(1,3-benzothiazol-6-ylsulfonyl(isobutyl)amino)-2-hydroxy-ethyl]-2-thienyl]methylcarbamoyl]-2-phenyl-2-(1H-pyrrolo[2,3-b]pyridin-3-yl)ethyl]benzamide]	4
CC(C)CN(C(CO)c1ccc(CNC(=O)C(NC(=O)c2ccccc2)C(c2ccccc2)c2cn(C)c3ccccc23)s1)S(=O)(=O)c1ccc2ncsc2c1 (stereo not drawn) [Example 127, N-[1-[[5-[1-(1,3-benzothiazol-6-ylsulfonyl(isobutyl)amino)-2-hydroxy-ethyl]-2-thienyl]methylcarbamoyl]-2-(1-methylindol-3-yl)-2-phenyl-ethyl]benzamide]	8
CC(C)CN(C(CO)c1ccc(CNC(=O)C(NC(=O)c2ccccc2)C(c2ccccc2)c2ccccc2)s1)S(=O)(=O)c1ccc2ncsc2c1 (stereo not drawn) [Example 128, N-[1-benzhydryl-2-[[5-[1-(1,3-benzothiazol-6-ylsulfonyl(isobutyl)amino)-2-hydroxy-ethyl]-2-thienyl]methylamino]-2-oxo-ethyl]benzamide]	53
CC(C)CN(C(CO)c1ccc(CNC(=O)C(NC(=O)c2ccccc2)C(c2ccccc2)c2cccc3ccncc23)s1)S(=O)(=O)c1ccc2ncsc2c1 (stereo not drawn) [Example 129, N-[1-[[5-[1-(1,3-benzothiazol-6-ylsulfonyl(isobutyl)amino)-2-hydroxy-ethyl]-2-thienyl]methylcarbamoyl]-2-(8-isoquinolyl)-2-phenyl-ethyl]benzamide]	7
CC(C)CN(C(CO)c1ccc(CNC(=O)C(NC(=O)c2ccccc2)C(c2ccccc2)c2c[nH]nc2-c2ccccc2)s1)S(=O)(=O)c1ccc2ncsc2c1 (stereo not drawn) [Example 130, N-[1-[[5-[1-(1,3-benzothiazol-6-ylsulfonyl(isobutyl)amino)-2-hydroxy-ethyl]-2-thienyl]methylcarbamoyl]-2-phenyl-2-(3-phenyl-1H-pyrazol-4-yl)ethyl]benzamide]	952
CC(C)CN(C(CO)c1ccc(CNC(=O)C(NC(=O)c2ccccc2)C(c2ccccc2)c2cn[nH]c2)s1)S(=O)(=O)c1ccc2ncsc2c1 (stereo not drawn) [Example 131, N-[1-[[5-[1-(1,3-benzothiazol-6-ylsulfonyl(isobutyl)amino)-2-hydroxy-ethyl]-2-thienyl]methylcarbamoyl]-2-phenyl-2-(1H-pyrazol-4-yl)ethyl]benzamide]	79
CC(C)CN(C(CO)c1ccc(CNC(=O)C(NC(=O)c2ccccc2)C(c2ccccc2)c2cnc[nH]2)s1)S(=O)(=O)c1ccc2ncsc2c1 (stereo not drawn) [Example 132, N-[1-[[5-[1-(1,3-benzothiazol-6-ylsulfonyl(isobutyl)amino)-2-hydroxy-ethyl]-2-thienyl]methylcarbamoyl]-2-(1H-imidazol-5-yl)-2-phenyl-ethyl]benzamide]	216
CC(C)CN(C(CO)c1ccc(CNC(=O)C(NC(=O)c2ccccc2)C(c2ccccc2)c2cccc3ncccc23)s1)S(=O)(=O)c1ccc2ncsc2c1 (stereo not drawn) [Example 133, N-[1-[[5-[1-(1,3-benzothiazol-6-ylsulfonyl(isobutyl)amino)-2-hydroxy-ethyl]-2-thienyl]methylcarbamoyl]-2-phenyl-2-(5-quinolyl)ethyl]benzamide]	4.76
N-{(1S)-1-[5-((1R)-1-{(3,3-dimethylbutyl)[4-(1-methyl-1H-pyrazol-4-ylphenylsulfonyl]amino}-2-hydroxyethyl)-2-thienyl]-2,2,2-trifluoroethyl}-Nα-(methoxycarbonyl)-β-phenyl-L-phenylalaninamide [Example 115]	20.9
